According to patent publication US11253519B2, “Composition used to improve symptoms of autism spectrum disorder, and method using same for improving symptoms of autism spectrum disorder” (RENASCIENCE CO., LTD., priority 2016, dated 2022):

System: ASD patient
Assay: ABC-J aberrant behavior checklist (58 items, each rated 0 no problems to 3 marked; 5 subscales) in ASD patients before and after oral intake of test drug
Format: in vivo, human
Design: key to ABC-J subscale total score: Hyperactivity / ABC-J subscale total score: Inappropriate Speech: subscale total: sum of its item scores (each 0 = none to 3 = marked)
Procedure: ABC-J is an aberrant behavior checklist available in Japan, which was made by translating and standardizing the revised version of the aberrant behavior checklist developed by American psychologists Aman M. G. and Singh N. N. as a rating scale for quantitatively assessing behavioral disorders associated with intellectual disability and developmental disorder. ABC-J is composed of 58 items that represent problematic behaviors, and a subject is assessed for each item on the following four-rating scale: there are no problems (0 points); the degree of problematic behavior is mild (1 point); the degree of problematic behavior is moderate (2 points); and the degree of problematic behavior is marked (3 points). These 58 items are classified into five subscales: I. Irritability (15 items); II. Lethargy (16 items); III. Stereotypical Behavior (7 items); IV. Hyperactivity (16 items); and V. Inappropriate Speech (4 items). Assessment can be made for each subscale (Ministry of Health, Labour and Welfare, Year 2012 Total Welfare Promotion Project for People with Disabilities, Guidelines for Support for and Assessment of Children with Developmental Disabilities, Asperger Society Japan (a specified non-profit organization), March 2013). […]
An ASD patient (body weight: 45 kg) orally took the test drug detailed below every day for 8 weeks, and their symptoms of ASD were assessed by the diagnostic method described below before (before the start of administration) and 8 weeks after the intake of the drug (8 weeks after the start of administration).
The symptoms of ASD of the ASD patient were assessed based on the scores of ABC-J, PARS-TR, and RSB-R (Japanese version) by a medical doctor who is a researcher of ASD. […]

[1] = case 1, 600 mg/day oral + fursultiamine 25 mg/day, 1 month after start, before administration: 0
[2] = case 1, 600 mg/day oral + fursultiamine 25 mg/day, 1 month after start, before administration: 1
[3] = case 1, 600 mg/day oral + fursultiamine 25 mg/day, 1 month after start, before administration: 2
[4] = case 1, 600 mg/day oral + fursultiamine 25 mg/day, 1 month after start, before administration: 3
[5] = case 2, 600 mg/day oral + fursultiamine 25 mg/day, 17 days after start, before administration: 0
[6] = case 2, 600 mg/day oral + fursultiamine 25 mg/day, 17 days after start, before administration: 1
[7] = case 2, 600 mg/day oral + fursultiamine 25 mg/day, 17 days after start, before administration: 2
[8] = case 2, 600 mg/day oral + fursultiamine 25 mg/day, 17 days after start, before administration: 4
[9] = case 4, 800 mg/day oral + fursultiamine 25 mg/day, 8 weeks

Cc1ncc(CO)c(CN)c1O.Cl.Cl [pyridoxamine dihydrochloride]
significantly improved: stereotypical behaviors (DSM-5 diagnostic criteria B(1)) [9]
2: ABC-J item 42 score (Lethargy) (case 2, 600 mg/day oral + fursultiamine 25 mg/day, 17 days after start, before administration: 3) | ABC-J subscale total score: Hyperactivity [8] | ABC-J subscale total score: Inappropriate Speech [8] | ABC-J subscale total score: Stereotypical Behavior (case 2, 600 mg/day oral + fursultiamine 25 mg/day, 17 days after start, before administration: 5)
6: ABC-J subscale total score: Lethargy (case 1, 600 mg/day oral + fursultiamine 25 mg/day, 1 month after start, before administration: 10) | ABC-J subscale total score: Stereotypical Behavior (case 1, 600 mg/day oral + fursultiamine 25 mg/day, 1 month after start, before administration: 15)
4: ABC-J subscale total score: Hyperactivity (case 1, 600 mg/day oral + fursultiamine 25 mg/day, 1 month after start, before administration: 19)
alleviated the severity: severity of irritability and self-harming behavior [9]
1: ABC-J item 4 score (Irritability) [1] | ABC-J item 32 score (Lethargy) [1] | ABC-J item 12 score (Lethargy) [2] | ABC-J item 20 score (Lethargy) [2] | ABC-J item 40 score (Lethargy) [2] | ABC-J item 48 score (Hyperactivity) [2] | ABC-J item 58 score (Lethargy) [2] | ABC-J item 1 score (Hyperactivity) [3] | ABC-J item 15 score (Hyperactivity) [3] | ABC-J item 22 score (Inappropriate Speech) [3] | ABC-J item 23 score (Lethargy) [3] | ABC-J item 27 score (Stereotypical Behavior) [3] | ABC-J item 35 score (Stereotypical Behavior) [3] | ABC-J item 38 score (Hyperactivity) [3] | ABC-J item 45 score (Stereotypical Behavior) [3] | ABC-J item 49 score (Stereotypical Behavior) [3] | ABC-J item 6 score (Stereotypical Behavior) [4] | ABC-J item 11 score (Stereotypical Behavior) [4] | ABC-J subscale total score: Inappropriate Speech [4] | ABC-J subscale total score: Irritability (case 1, 600 mg/day oral + fursultiamine 25 mg/day, 1 month after start, before administration: 11) | ABC-J item 1 score (Hyperactivity) [6] | ABC-J item 15 score (Hyperactivity) [6] | ABC-J item 26 score (Lethargy) [6] | ABC-J item 5 score (Lethargy) [7] | ABC-J item 6 score (Stereotypical Behavior) [7] | ABC-J item 16 score (Lethargy) [7] | ABC-J item 22 score (Inappropriate Speech) [7] | ABC-J item 45 score (Stereotypical Behavior) [7] | ABC-J item 46 score (Inappropriate Speech) [7]
significant improvement in symptoms: ABC-J symptoms across the 5 subscales I to V compared with before taking the drug (case 1, 600 mg/day oral + fursultiamine 25 mg/day, 1 month)
0: ABC-J item 2 score (Irritability) [1] | ABC-J item 3 score (Lethargy) [1] | ABC-J item 5 score (Lethargy) [1] | ABC-J item 9 score (Inappropriate Speech) [1] | ABC-J item 13 score (Hyperactivity) [1] | ABC-J item 16 score (Lethargy) [1] | ABC-J item 33 score (Inappropriate Speech) [1] | ABC-J item 34 score (Irritability) [1] | ABC-J item 42 score (Lethargy) [1] | ABC-J item 47 score (Irritability) [1] | ABC-J item 50 score (Irritability) [1] | ABC-J item 52 score (Irritability) [1] | ABC-J item 53 score (Lethargy) [1] | ABC-J item 54 score (Hyperactivity) [1] | ABC-J item 55 score (Lethargy) [1] | ABC-J item 56 score (Hyperactivity) [1] | ABC-J item 8 score (Irritability) [2] | ABC-J item 17 score (Stereotypical Behavior) [2] | ABC-J item 18 score (Hyperactivity) [2] | ABC-J item 19 score (Irritability) [2] | ABC-J item 21 score (Hyperactivity) [2] | ABC-J item 24 score (Hyperactivity) [2] | ABC-J item 25 score (Irritability) [2] | ABC-J item 26 score (Lethargy) [2] | ABC-J item 28 score (Hyperactivity) [2] | ABC-J item 29 score (Irritability) [2] | ABC-J item 30 score (Lethargy) [2] | ABC-J item 31 score (Hyperactivity) [2] | ABC-J item 36 score (Irritability) [2] | ABC-J item 37 score (Lethargy) [2] | ABC-J item 41 score (Irritability) [2] | ABC-J item 43 score (Lethargy) [2] | ABC-J item 46 score (Inappropriate Speech) [2] | ABC-J item 51 score (Hyperactivity) [2] | ABC-J item 57 score (Irritability) [2] | ABC-J item 7 score (Hyperactivity) [3] | ABC-J item 10 score (Irritability) [3] | ABC-J item 14 score (Irritability) [3] | ABC-J item 39 score (Hyperactivity) [3] | ABC-J item 44 score (Hyperactivity) [3] | ABC-J item 2 score (Irritability) [5] | ABC-J item 7 score (Hyperactivity) [5] | ABC-J item 8 score (Irritability) [5] | ABC-J item 9 score (Inappropriate Speech) [5] | ABC-J item 11 score (Stereotypical Behavior) [5] | ABC-J item 13 score (Hyperactivity) [5] | ABC-J item 17 score (Stereotypical Behavior) [5] | ABC-J item 18 score (Hyperactivity) [5] | ABC-J item 19 score (Irritability) [5] | ABC-J item 27 score (Stereotypical Behavior) [5] | ABC-J item 28 score (Hyperactivity) [5] | ABC-J item 29 score (Irritability) [5] | ABC-J item 31 score (Hyperactivity) [5] | ABC-J item 32 score (Lethargy) [5] | ABC-J item 33 score (Inappropriate Speech) [5] | ABC-J item 34 score (Irritability) [5] | ABC-J item 36 score (Irritability) [5] | ABC-J item 38 score (Hyperactivity) [5] | ABC-J item 39 score (Hyperactivity) [5] | ABC-J item 41 score (Irritability) [5] | ABC-J item 44 score (Hyperactivity) [5] | ABC-J item 47 score (Irritability) [5] | ABC-J item 48 score (Hyperactivity) [5] | ABC-J item 49 score (Stereotypical Behavior) [5] | ABC-J item 50 score (Irritability) [5] | ABC-J item 51 score (Hyperactivity) [5] | ABC-J item 52 score (Irritability) [5] | ABC-J item 53 score (Lethargy) [5] | ABC-J item 54 score (Hyperactivity) [5] | ABC-J item 55 score (Lethargy) [5] | ABC-J item 56 score (Hyperactivity) [5] | ABC-J item 57 score (Irritability) [5] | ABC-J item 4 score (Irritability) [6] | ABC-J item 10 score (Irritability) [6] | ABC-J item 12 score (Lethargy) [6] | ABC-J item 20 score (Lethargy) [6] | ABC-J item 21 score (Hyperactivity) [6] | ABC-J item 23 score (Lethargy) [6] | ABC-J item 24 score (Hyperactivity) [6] | ABC-J item 30 score (Lethargy) [6] | ABC-J item 35 score (Stereotypical Behavior) [6] | ABC-J item 37 score (Lethargy) [6] | ABC-J item 40 score (Lethargy) [6] | ABC-J item 43 score (Lethargy) [6] | ABC-J item 58 score (Lethargy) [6] | ABC-J item 3 score (Lethargy) [7] | ABC-J item 14 score (Irritability) [7] | ABC-J item 25 score (Irritability) [7] | ABC-J subscale total score: Irritability (case 2, 600 mg/day oral + fursultiamine 25 mg/day, 17 days after start, before administration: 6)
decreased: total score of all ABC-J items compared with before administration (case 3, 800 mg/day oral + fursultiamine 25 mg/day, 8 weeks, FIG. 7A) | ABC-J total score of each of the 5 subscales compared with before administration (case 3, 800 mg/day oral + fursultiamine 25 mg/day, 8 weeks, FIG. 7B) | total score of all items of ABC-J compared with before administration (case 4 (no speech), 800 mg/day oral + fursultiamine 25 mg/day, 8 weeks, FIG. 9A) | ABC-J subtotal score of the four subscales compared with before administration (case 4, 800 mg/day oral + fursultiamine 25 mg/day, 8 weeks, Inappropriate Speech zero because no speech, FIG. 9B)
5: ABC-J subscale total score: Lethargy (case 2, 600 mg/day oral + fursultiamine 25 mg/day, 17 days after start, before administration: 18)
significantly improved symptoms: ABC-J symptoms across all of the 5 subscales I to V (case 2, 600 mg/day oral + fursultiamine 25 mg/day, 17 days)
